Measured values taken from the NIST ThermoML archive (doi:10.1021/je0603325).
Numbers after ± are expanded uncertainties.

Assay: molar heat capacity at constant pressure; xn = mol fraction of the nth substance listed
Conditions: 101 kPa, Liquid, Small sample (50 mg) DSC

BrCCBr [1,2-dibromoethane] + CCCCCCC
molar heat capacity at constant pressure [J/K/mol]
Conditions | x1 = 0.1016 | x1 = 0.2016 | x1 = 0.2989 | x1 = 0.3977 | x1 = 0.4996 | x1 = 0.5991 | x1 = 0.6928 | x1 = 0.8022 | x1 = 0.9003 | x1 = 1
293.15 K | 213.58 ± 3.3 | 204.39 ± 3.2 | 196.15 ± 3 | 187.73 ± 2.9 | 179.31 ± 2.8 | 170.59 ± 2.6 | 162.47 ± 2.5 | 153.18 ± 2.4 | 144.9 ± 2.2 | 136.87 ± 2.1
294.15 K | 213.9 ± 3.3 | 204.73 ± 3.2 | 196.48 ± 3 | 188.03 ± 2.9 | 179.43 ± 2.8 | 170.8 ± 2.6 | 162.6 ± 2.5 | 153.26 ± 2.4 | 144.94 ± 2.2 | 136.9 ± 2.1
295.15 K | 214.26 ± 3.3 | 204.92 ± 3.2 | 196.66 ± 3 | 188.2 ± 2.9 | 179.65 ± 2.8 | 170.96 ± 2.6 | 162.81 ± 2.5 | 153.4 ± 2.4 | 145.07 ± 2.2 | 136.95 ± 2.1
296.15 K | 214.59 ± 3.3 | 205.3 ± 3.2 | 196.95 ± 3 | 188.51 ± 2.9 | 179.89 ± 2.8 | 171.13 ± 2.6 | 162.9 ± 2.5 | 153.53 ± 2.4 | 145.16 ± 2.2 | 136.99 ± 2.1
297.15 K | 214.9 ± 3.3 | 205.51 ± 3.2 | 197.29 ± 3.1 | 188.66 ± 2.9 | 180.09 ± 2.8 | 171.23 ± 2.6 | 163.05 ± 2.5 | 153.63 ± 2.4 | 145.24 ± 2.2 | 137.02 ± 2.1
298.15 K | 215.25 ± 3.3 | 205.83 ± 3.2 | 197.53 ± 3.1 | 188.94 ± 2.9 | 180.26 ± 2.8 | 171.4 ± 2.7 | 163.18 ± 2.5 | 153.72 ± 2.4 | 145.27 ± 2.2 | 137.04 ± 2.1
299.15 K | 215.55 ± 3.3 | 206.18 ± 3.2 | 197.72 ± 3.1 | 189.11 ± 2.9 | 180.39 ± 2.8 | 171.55 ± 2.7 | 163.24 ± 2.5 | 153.84 ± 2.4 | 145.33 ± 2.2 | 137.09 ± 2.1
300.15 K | 215.9 ± 3.3 | 206.45 ± 3.2 | 198 ± 3.1 | 189.43 ± 2.9 | 180.66 ± 2.8 | 171.77 ± 2.7 | 163.47 ± 2.5 | 153.91 ± 2.4 | 145.4 ± 2.2 | 137.11 ± 2.1
301.15 K | 216.32 ± 3.4 | 206.71 ± 3.2 | 198.31 ± 3.1 | 189.64 ± 2.9 | 180.79 ± 2.8 | 171.9 ± 2.7 | 163.5 ± 2.5 | 153.98 ± 2.4 | 145.47 ± 2.2 | 137.15 ± 2.1
302.15 K | 216.6 ± 3.4 | 207.03 ± 3.2 | 198.6 ± 3.1 | 189.82 ± 2.9 | 181.03 ± 2.8 | 172.01 ± 2.7 | 163.71 ± 2.5 | 154.13 ± 2.4 | 145.6 ± 2.3 | 137.2 ± 2.1
303.15 K | 216.95 ± 3.4 | 207.33 ± 3.2 | 198.77 ± 3.1 | 190.01 ± 2.9 | 181.17 ± 2.8 | – | – | – | – | –
